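Where inhibition never reached the appropriate level, the endpoint shown equals the highest concentration tested. Otherwise, values were interpolated linearly from a five-concentration, 48-hour dose response in 96-well plates. GI50 = concentration required for 50% inhibition of growth. TGI is the concentration that stops growth completely.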
What was measured:
Assay in all cases: NCI anticancer screen, dose series, 48 h
[1] = test system: UACC-62 melanoma
[2] = test system: 786-0 renal
[3] = test system: SK-MEL-28 melanoma
[4] = test system: PC-3 prostate
[5] = test system: K-562 leukemia
[6] = test system: MDA-MB-468 breast
[7] = test system: NCI-H23 lung
[8] = test system: RPMI-8226 leukemia
[9] = test system: IGROV1 ovarian
[10] = test system: MCF7 breast
[11] = test system: MALME-3M melanoma
[12] = test system: MOLT-4 leukemia
[13] = test system: ACHN renal
[14] = test system: TK-10 renal
[15] = test system: M14 melanoma
[16] = test system: A498 renal
[17] = test system: SK-MEL-5 melanoma
[18] = test system: HCT-116 colon
[19] = test system: SN12C renal
[20] = test system: U251 CNS
[21] = test system: RXF 393 renal
[22] = test system: OVCAR-5 ovarian
[23] = test system: HOP-62 NSCLC
[24] = test system: SF-295 CNS
[25] = test system: CAKI-1 renal
[26] = test system: SR leukemia
[27] = test system: SW-620 colon

CC[C@]12C=CCN3CC[C@@]4(c5ccc(OC)cc5N(C)[C@H]4[C@@](O)(C(=O)OC)[C@@H]1OC(=O)CCCC[P+](c1ccc(OC)cc1)(c1ccc(OC)cc1)c1ccc(OC)cc1)[C@@H]32 was tested, and the GI50 [1] was 963 nM, the TGI [1] was 2200 nM and the GI50 [2] was 2590 nM. For the same compound, the TGI [2] was 8040 nM, the GI50 [3] was 486 nM and the TGI [3] was 1730 nM. For the same compound, the GI50 [4] was 562 nM, the TGI [4] was 5900 nM and the GI50 [5] was 675 nM. For the same compound, the TGI [5] was 2530 nM, the GI50 [6] was 264 nM and the TGI [6] was 799 nM. It also gave a GI50 [7] of 1190 nM, a TGI [7] of 4740 nM and a GI50 [8] of 299 nM. The TGI [8] was 969 nM, the GI50 [9] was 548 nM and the TGI [9] was 1860 nM. The GI50 [10] was 105 nM, the TGI [10] was 225 nM and the GI50 [11] was 1130 nM. It also gave a TGI [11] of 2410 nM, a GI50 [12] of 1180 nM and a TGI [12] of 3210 nM. It also gave a GI50 [13] of 6280 nM, a TGI [13] of 19700 nM and a GI50 [14] of 1670 nM. For the same compound, the TGI [14] was 3800 nM, the GI50 [15] was 1200 nM and the TGI [15] was 2740 nM. For the same compound, the GI50 [16] was 2930 nM, the TGI [16] was 11400 nM and the GI50 [17] was 1600 nM. It also gave a TGI [17] of 2950 nM, a GI50 [18] of 1300 nM and a TGI [18] of 7760 nM. The GI50 [19] was 1180 nM, the TGI [19] was 3070 nM and the GI50 [20] was 392 nM. For the same compound, the TGI [20] was 1450 nM, the GI50 [21] was 524 nM and the TGI [21] was 2040 nM. For the same compound, the GI50 [22] was 2130 nM, the TGI [22] was 7150 nM and the GI50 [23] was 2420 nM. For the same compound, the TGI [23] was 7120 nM, the GI50 [24] was 1970 nM and the TGI [24] was 5440 nM. The GI50 [25] was 15200 nM, the TGI [25] was 29800 nM and the GI50 [26] was 428 nM. The TGI [26] was 1700 nM and the GI50 [27] was 1060 nM.
